Experimental data reported in patent US20020103377A1, “Piperidinyloxy and pyrrolidinyloxy oxazolidinone antibacterials” (priority 1999, published 2002).
≈ marks a conversion by molar mass, not a printed value.

Assays:
E. faecium OC3312 = assay: MIC by microdilution broth method (NCCLS), E. faecium OC3312; format: cell-based; conditions: cation adjusted Mueller-Hinton broth, 35° C., 16-20 hours; for MIC: Enterococcus faecium, OC3312, microdilution broth, read-out: MIC (μg/mL) E. faecium OC3312
Protocol: (§1) Minimal inhibitory concentration (MIC) has been an indicator of in vitro antibacterial activity widely used in the art. The in vitro antimicrobial activity of the compounds was determined by the microdilution broth method following the test method from the National Committee for Laboratory Standards (NCCLS). This method is described in the NCCLS Document M7-A4, Vol. 17, No.2, “Methods for Dilution Antimicrobial Susceptibility Test for Bacteria that Grow Aerobically-Fourth Edition”, which is incorporated herein by reference.
(§2) In this method two-fold serial dilutions of drug in cation adjusted Mueller-Hinton broth are added to wells in microdilution trays. The test organisms are prepared by adjusting the turbidity of actively growing broth cultures so that the final concentration of test organism after it is added to the wells is approximately 5×10^4 CFU/well.
(§3) Following inoculation of the microdilution trays, the trays are incubated at 35° C. for 16-20 hours and then read. […] The amount of growth in the wells containing the test compound is compared with the amount of growth in the growth-control wells (no test compound) used in each tray. As set forth in Table 1, compounds of the present invention were tested against a variety of Gram positive and Gram negative pathogenic bacteria resulting in a range of activities, from 1 to ≧128 μg/mL depending on the organism tested.

MRSA OC 2878 = assay: MIC by microdilution broth method (NCCLS), MRSA OC 2878; format: cell-based, Staphylococcus aureus; conditions: cation adjusted Mueller-Hinton broth, 35° C., 16-20 hours; for MIC: Staphylococcus aureus, MRSA, read-out: MIC (μg/mL) MRSA OC 2878
Protocol: as §1, §2, §3

S. aureus = assay: MIC by microdilution broth method (NCCLS), S. aureus Broth; format: cell-based; conditions: cation adjusted Mueller-Hinton broth, 35° C., 16-20 hours; for MIC: Staphylococcus aureus, read-out: MIC (μg/mL) S. aureus Broth
Protocol: as §1, §2, §3

MIC (E. faecium OC3312) [µg/mL] | MIC (MRSA OC 2878) [µg/mL] | MIC (S. aureus) [µg/mL] | MIC (μg/mL) E. faecium OC3312 (E. faecium OC3312; microdilution broth) [µg/mL] | MIC (μg/mL) MRSA OC 2878 (MRSA OC 2878) [µg/mL] | MIC (μg/mL) S. aureus Broth (S. aureus) [µg/mL] | Structure (SMILES)
 |  |  | 4 (≈ 8.01 µM) | 2 (≈ 4 µM) | 4 (≈ 8.01 µM) | CC(=O)NC[C@H]1CN(c2ccc(OC3CCN(C(=O)COCc4ccccc4)CC3)c(F)c2)C(=O)O1 [Compound 3, (S)-N-[[3-[3-Fluoro-4-{N-(benzyloxyacetyl)piperidinyl-4-oxy}phenyl]-2-oxo-5-oxazolidinyl]methyl]acetamide]
64 (≈ 140 µM) | 32 (≈ 70.1 µM) | 32 (≈ 70.1 µM) |  |  |  | CC(=O)NC[C@H]1CN(c2ccc(OC3CCN(C(=O)c4ccncc4)CC3)c(F)c2)C(=O)O1 [Compound 21, (S)-N-[[3-[3-Fluoro-4-{N-(4-pyridoyl)piperidinyl-4-oxy}phenyl]-2-oxo-5-oxazolidinyl]methyl]acetamide]
16 (≈ 33.1 µM) | 8 (≈ 16.5 µM) | 16 (≈ 33.1 µM) |  |  |  | CC(=O)NC[C@H]1CN(c2ccc(OC3CCN(C(=O)CCc4ccccc4)CC3)c(F)c2)C(=O)O1 [Compound 28, (S)-N-[[3-[3-Fluoro-4-{N-(3-phenyl-propionyl)piperidinyl-4-oxy}phenyl]-2-oxo-5-oxazolidinyl]methyl]acetamide]
16 (≈ 40.7 µM) | 8 (≈ 20.3 µM) | 8 (≈ 20.3 µM) |  |  |  | CC(=O)NC[C@H]1CN(c2ccc(OC3CCN(C(C)=O)CC3)c(F)c2)C(=O)O1 [Compound 7, (S)-N-[[3-[3-Fluoro-4-{N-(acetyl)piperidinyl-4-oxy}phenyl]-2-oxo-5-oxazolidinyl]methyl]acetamide]
> 128 | 32 (≈ 66.3 µM) | 32 (≈ 66.3 µM) |  |  |  | CC(=O)NC[C@H]1CN(c2ccc(OC3CCN(C(=O)COCc4ccccc4)CC3)nc2)C(=O)O1 [Compound 42, (5S)-3-[6-{N-(Benzyloxyacetyl)piperidinyl-4-oxy}-pyridin-3-yl]-5-methylacetamide-oxazolidin-2-one]
8 (≈ 16 µM) | 8 (≈ 16 µM) | 8 (≈ 16 µM) |  |  |  | CC(=O)NC[C@H]1CN(c2ccc(OC3CCN(C(=O)COCc4ccncc4)CC3)c(F)c2)C(=O)O1 [Compound 54]
16 (≈ 37.8 µM) | 8 (≈ 18.9 µM) | 8 (≈ 18.9 µM) |  |  |  | COCC(=O)N1CCC(Oc2ccc(N3C[C@H](CNC(C)=O)OC3=O)cc2F)CC1 [Compound 5, (S)-N-[[3-[3-Fluoro-4-{N-(methoxyacetyl)piperidinyl-4-oxy}phenyl]-2-oxo-5-oxazolidinyl]methyl]acetamide]
16 (≈ 39.1 µM) | 8 (≈ 19.5 µM) | 8 (≈ 19.5 µM) |  |  |  | CC(=O)NC[C@H]1CN(c2ccc(OC3CCCN(C(=O)CO)C3)c(F)c2)C(=O)O1 (stereo partly drawn) [Compound 36, (S)-N-[[3-[3-Fluoro-4-{N-(α-hydroxyacetyl)piperidinyl-3-oxy}phenyl]-2-oxo-5-oxazolidinyl]methyl]acetamide]
8 (≈ 14.7 µM) | 8 (≈ 14.7 µM) | 8 (≈ 14.7 µM) |  |  |  | CC(=O)NC[C@H]1CN(c2ccc(OC3CCN(C(=O)CNC(=O)OCc4ccccc4)CC3)c(F)c2)C(=O)O1 [Compound 15]
16 (≈ 40.7 µM) | 8 (≈ 20.3 µM) | 8 (≈ 20.3 µM) |  |  |  | CC(=O)NC[C@H]1CN(c2ccc(OC3CCCN(C(C)=O)C3)c(F)c2)C(=O)O1 (stereo partly drawn) [Compound 37, (S)-N-[[3-[3-Fluoro-4-{N-(acetyl)piperidinyl-3-oxy}phenyl]-2-oxo-5-oxazolidinyl]methyl]acetamide]
16 (≈ 33 µM) | 8 (≈ 16.5 µM) | 8 (≈ 16.5 µM) |  |  |  | COc1ccc(C(=O)N2CCC(Oc3ccc(N4C[C@H](CNC(C)=O)OC4=O)cc3F)CC2)cc1 [Compound 13, (S)-N-[[3-[3-Fluoro-4-{N-(4-methoxybenzoyl)piperidinyl-4-oxy}phenyl]-2-oxo-5-oxazolidinyl]methyl]acetamide]
8 (≈ 19.5 µM) | 4 (≈ 9.77 µM) | 4 (≈ 9.77 µM) |  |  |  | CC(=O)NC[C@H]1CN(c2ccc(OC3CCN(C(=O)CO)CC3)c(F)c2)C(=O)O1 [Compound 4, (S)-N-[[3-[3-Fluoro-4-{N-(α-hydroxyacetyl)piperidinyl-4-oxy}phenyl]-2-oxo-5-oxazolidinyl]methyl]acetamide]
4 (≈ 8.96 µM) | 8 (≈ 17.9 µM) | 8 (≈ 17.9 µM) |  |  |  | CC(=O)NC[C@H]1CN(c2ccc(OC3CCN(C(=O)c4ccno4)CC3)c(F)c2)C(=O)O1 [Compound 52, (S)-N-[[3-[3-Fluoro-4-{N-(5-isoxazolylcarbonyl)piperdinyl-4-oxy}phenyl]-2-oxo-5-oxazolidinyl]methyl]acetamide]
64 (≈ 128 µM) | 32 (≈ 64.1 µM) | 32 (≈ 64.1 µM) |  |  |  | CC(=O)NC[C@H]1CN(c2ccc(OC3CCCN(C(=O)COCc4ccccc4)C3)c(F)c2)C(=O)O1 (stereo partly drawn) [Compound 35, (S)-N-[[3-[3-Fluoro-4-{N-(benzyloxyacetyl)piperidinyl-3-oxy}phenyl]-2-oxo-5-oxazolidinyl]methyl]acetamide]
8 (≈ 16 µM) | 16 (≈ 32 µM) | 16 (≈ 32 µM) |  |  |  | CC(=O)NC[C@H]1CN(c2ccc(OC3CCN(C(=O)COCc4cccnc4)CC3)c(F)c2)C(=O)O1 [Compound 55]

Second part, the compound before the results:

Structure (SMILES) | MIC (E. faecium OC3312) [µg/mL] | MIC (MRSA OC 2878) [µg/mL] | MIC (S. aureus) [µg/mL] | MIC (μg/mL) E. faecium OC3312 (E. faecium OC3312; microdilution broth) [µg/mL] | MIC (μg/mL) MRSA OC 2878 (MRSA OC 2878) [µg/mL] | MIC (μg/mL) S. aureus Broth (S. aureus) [µg/mL]
CC(=O)NC[C@H]1CN(c2ccc(OC3CCN(C(=O)C(NC(=O)OCc4ccccc4)C(C)C)CC3)nc2)C(=O)O1 (stereo partly drawn) [Compound 50] | > 64 | 64 (≈ 113 µM) | > 64 |  |  | 
CC(=O)NC[C@H]1CN(c2ccc(OC3CCN(S(C)(=O)=O)CC3)cc2)C(=O)O1 [Compound 33, (S)-N-[[3-[4-{N-(Methanesulfonyl)piperidinyl-4-oxy}phenyl]-2-oxo-5-oxazolidinyl]methyl]acetamide] | 32 (≈ 77.8 µM) | 16 (≈ 38.9 µM) | 16 (≈ 38.9 µM) |  |  | 
CC(=O)OCC(=O)N1CC(Oc2ccc(N3C[C@H](CN(C(C)=O)C(=O)COC(C)=O)OC3=O)cc2F)C1 [Compound 60, (S)-N-[[3-[3-Fluoro-4-{N-(acetoxyacetyl)azetidinyl-3-oxy}phenyl]-2-oxo-5-oxazolidinyl]methyl]-N-[α-acetoxyacetyl]acetamide] | > 128 | 16 (≈ 30.6 µM) | 8 (≈ 15.3 µM) |  |  | 
CC(=O)NC[C@H]1CN(c2ccc(OC3CN(S(C)(=O)=O)C3)c(F)c2)C(=O)O1 [Compound 57, (S)-N-[[3-[3-Fluoro-4-{N-(methanesulfonyl)azetidinyl-3-oxy}phenyl]-2-oxo-5-oxazolidinyl]methyl]acetamide] | 16 (≈ 39.9 µM) | 16 (≈ 39.9 µM) | 16 (≈ 39.9 µM) |  |  | 
CC(=O)NC[C@H]1CN(c2ccc(OC3CCN(C(=O)N(C)C)CC3)nc2)C(=O)O1 [Compound 49, (5S)-3-[6-{N-(Dimethylcarbamoyl)piperidinyl-4-oxy}-pyridin-3-yl]-5-methylacetamide-oxazolidin-2-one] | > 128 | 128 (≈ 316 µM) | > 64 |  |  | 
COc1cccc(C(=O)N2CCC(Oc3ccc(N4C[C@H](CNC(C)=O)OC4=O)cn3)CC2)c1 [Compound 48, (5S)-3-[6-{N-(3-Methoxybenzoyl)piperidinyl-4-oxy}-pyridin-3-yl]-5-methylacetamide-oxazolidin-2-one] | > 128 | 32 (≈ 68.3 µM) | 64 (≈ 137 µM) |  |  | 
CC(=O)NC[C@H]1CN(c2ccc(OC3CCN(C(=O)c4ccc(C#N)cc4)CC3)nc2)C(=O)O1 [Compound 45, (5S)-3-[6-{N-(4-Cyanobenzoyl)piperidinyl-4-oxy}-pyridin-3-yl]-5-methylacetamide-oxazolidin-2-one] | 128 (≈ 276 µM) | 64 (≈ 138 µM) | 64 (≈ 138 µM) |  |  | 
CC(=O)NC[C@H]1CN(c2ccc(OC3CCN(C(C)=O)CC3)nc2)C(=O)O1 [Compound 43, (5S)-3-[6-{N-(Acetyl)piperidinyl-4-oxy}-pyridin-3-yl]-5-methylacetamide-oxazolidin-2-one] | > 128 | 128 (≈ 340 µM) | 128 (≈ 340 µM) |  |  | 
CC(=O)NC[C@H]1CN(c2ccc(OC3CCN(C(C)=O)CC3)cc2)C(=O)O1 [Compound 32, (S)-N-[[3-[4-{N-(Acetyl)piperidinyl-4-oxy}phenyl]-2-oxo-5-oxazolidinyl]methyl]acetamide] | 32 (≈ 85.2 µM) | 8 (≈ 21.3 µM) | 16 (≈ 42.6 µM) |  |  | 
COC(=O)N1CCC(Oc2ccc(N3C[C@H](CNC(C)=O)OC3=O)cc2F)CC1 [Compound 8, (S)-N-[[3-[3-fluoro-4-{N-(methoxycarbonyl)piperidinyl-4-oxy}phenyl]-2-oxo-5-oxazolidinyl]methyl]acetamide] | 8 (≈ 19.5 µM) | 4 (≈ 9.77 µM) | 8 (≈ 19.5 µM) |  |  | 
CC(=O)NC[C@H]1CN(c2ccc(OC3CCN(C(=O)c4cccc(F)c4)CC3)nc2)C(=O)O1 [Compound 47, (5S)-3-[6-{N-(3-Fluorobenzoyl)piperidinyl-4-oxy}-pyridin-3-yl]-5-methylacetamide-oxazolidin-2-one] | > 128 | 64 (≈ 140 µM) | 64 (≈ 140 µM) |  |  | 
CC(=O)NC[C@H]1CN(c2ccc(OC3CCN(C(=O)CO)CC3)cc2)C(=O)O1 [Compound 31, (S)-N-[[3-[4-{N-(α-Hydroxyacetyl)piperidinyl-4-oxy}phenyl]-2-oxo-5-oxazolidinyl]methyl]acetamide] | 32 (≈ 81.8 µM) | 16 (≈ 40.9 µM) | 16 (≈ 40.9 µM) |  |  | 
CC(=O)NC[C@H]1CN(c2ccc(OC3CCN(C(=O)CN4CCOCC4)CC3)c(F)c2)C(=O)O1 [Compound 56] | 32 (≈ 66.9 µM) | 32 (≈ 66.9 µM) | 32 (≈ 66.9 µM) |  |  | 
